EC50 data for 51 compounds are collected here from patent US12037333B2, “Pyridopyrazine and pyridotriazine inhibitors of influenza virus replication” (priority 2018, dated 2024).

Structures are written as SMILES.

In one assay the test system is Influenza type A (strain A/PR/8/34, ATCC VR-95). Briefly: Influenza antiviral assay: inhibition of virus-induced cytopathic effects (CPE) in MDCK cells, XTT dye reduction. Format: cell-based. Particulars: Influenza A (H1N1), strain A/PR/8/34, MDCK cells, CPE inhibition at 4 days. (Damage to the host cells serves as the signal in cytopathic effect assays.)
`O=C1c2c(O)c(=O)ccn2N(C23c4ccccc4CC2Cc2c(Cl)cccc23)CN1CCF` (stereo not drawn) [Compound A114]: the EC50 – broadly, the concentration at which the effect is half-maximal – lay within 0.125 to 0.25 µM.

Compound `CC1N(CC(F)F)C(=O)c2c(O)c(=O)ccn2N1C12c3ccccc3CC1Cc1c2ccc(F)c1F` (stereo not drawn) [Compound A137] displayed an EC50 of 0.125 to 0.25 µM.

For the compound `CC(CCN1CN(C23c4ccccc4CC2Cc2ccccc23)n2ccc(=O)c(O)c2C1=O)c1ccccc1` (stereo not drawn) [Compound A33], the EC50 lay within 0.375 to 0.5 µM.

The assay is the same for the next values; noted with them: Influenza A virus, H1N1 / PR/8, MDCK, 96 h, strain A/PR/8/34, MDCK cells, CPE inhibition at 4 days.
`O=C1c2c(O)c(=O)ccn2N(C23c4ccccc4CC2Cc2c3ccc(F)c2F)CN1Cc1cccc(F)c1` (stereo not drawn) [Compound A26, 1-(1,2-difluoro-9a,10-dihydroindeno[1,2-a]inden-4b(9H)-yl)-3-(3-fluorobenzyl)-5-hydroxy-2,3-dihydro-1H-pyrido[2,1-f][1,2,4]triazine-4,6-dione] showed a concentration giving a half-maximal response (EC50) of 0.375 to 0.5 µM.

Compound `O=C1c2c(O)c(=O)ccn2N(C23c4ccccc4CC2Cc2c(F)cccc23)CN1CCF` (stereo not drawn) [Compound A68] returned an EC50 of less than 0.125 µM.

Take `Cc1cccc2c1CC1Cc3c(F)cccc3C21N1CN(C)C(=O)c2c(O)c(=O)ccn21` (stereo not drawn) [Compound A67]: the EC50 was less than 0.125 µM.

In turn, `O=C1c2c(O)c(=O)ccn2N(C23c4ccccc4CC2Cc2c3ccc(F)c2F)CN1CC(F)F` (stereo not drawn) [Compound A84] yielded an EC50 of less than 0.125 µM.

`CC1N(C)C(=O)c2c(O)c(=O)ccn2N1C12c3ccccc3CC1Cc1c(Cl)cccc12` (stereo not drawn) [Compound A94]: the EC50 was 0.25 to 0.375 µM.

Consider `O=C1c2c(O)c(=O)ccn2N(C23c4ccccc4CC2Cc2cc(F)c(F)cc23)CN1CC1CC1` (stereo not drawn) [Compound A13, 3-Cyclopropylmethyl-1-(2,3-difluoro-9a,10-dihydro-9H-indeno[1,2-a]inden-4b-yl)-5-hydroxy-2,3-dihydro-1H-pyrido[2,1-f][1,2,4]triazine-4,6-dione], for which the EC50 is less than 0.125 µM.

Compound `CN1CN(C23c4ccccc4CC2Cc2ccccc23)n2ccc(=O)c(O)c2C1=O` (stereo not drawn) [Compound A1, 1-(9a, 10-dihydroindeno[1,2-a]inden-4b(9H)-yl)-5-hydroxy-3-methyl-2,3-dihydro-1H-pyrido[2,1-f][1,2,4]triazine-4,6-dione] came in with an EC50 of less than 0.125 µM.

`O=C1c2c(O)c(=O)ccn2N(C23c4ccccc4CC2Cc2c3ccc(F)c2F)CN1Cc1ccccc1` (stereo not drawn) [Compound A11, 3-Benzyl-1-(1,2-difluoro-9a,10-dihydro-9H-indeno[1,2-a]inden-4b-yl)-5-hydroxy-2,3-dihydro-1H-pyrido[2,1-t][1,2,4]triazine-4,6-dione] returned an EC50 greater than 0.5 µM.

Take `O=C1c2c(O)c(=O)ccn2N(C23c4ccccc4CC2Cc2c(Cl)cccc23)CN1CC1CC1` (stereo not drawn) [Compound A108]: the EC50 is 0.25 to 0.375 µM.

Consider `O=C1c2c(O)c(=O)ccn2N(C23c4ccccc4CC2Cc2c(Cl)cccc23)CN1CC(F)F` (stereo not drawn) [Compound A105], for which the EC50 was less than 0.125 µM.

The compound `CC1N(CC2CC2)C(=O)c2c(O)c(=O)ccn2N1C12c3ccccc3CC1Cc1c(Cl)cccc12` (stereo not drawn) [Compound A140] registered an EC50 of 0.25 to 0.375 µM.

As to `COCCN1CN(C23c4cccc(F)c4CC2Cc2c(F)cccc23)n2ccc(=O)c(O)c2C1=O` (stereo not drawn) [Compound A49], the EC50 was less than 0.125 µM.

Compound `CN1CN(C23C(=Cc4ccccc42)Cc2ccccc23)n2ccc(=O)c(O)c2C1=O` (stereo not drawn) [Compound A30, 5-hydroxy-1-(indeno[1,2-a]inden-4b(9H)-yl)-3-methyl-2,3-dihydro-1H-pyrido[2,1-f][1,2,4]triazine-4,6-dione] had a concentration for a half-maximal effect (EC50) of less than 0.125 µM.

In turn, `O=C1c2c(O)c(=O)ccn2N(C23c4cccc(F)c4CC2Cc2c(F)cccc23)CN1CC1CCCCO1` (stereo not drawn) [Compound A130] displayed an EC50 greater than 0.5 µM.

`O=C1c2c(O)c(=O)ccn2N(C23c4ccccc4CC2Cc2c(F)cccc23)CN1CC1CCOCC1` (stereo not drawn) [Compound A75] came in with a concentration for a half-maximal effect (EC50) of less than 0.125 µM.

On to `Cc1c(F)ccc2c1CC1Cc3ccccc3C21N1CN(C)C(=O)c2c(O)c(=O)ccn21` (stereo not drawn) [Compound A78], for which the half-maximal effective concentration (EC50) was less than 0.125 µM.

With `O=C1c2c(O)c(=O)ccn2N(C23c4ccccc4CC2Cc2c(Cl)cccc23)CN1CCF` (stereo not drawn) [Compound A111], the EC50 lay in the range of 0.125 to 0.25 µM.

As for `CCN1CN(C23c4cccc(F)c4CC2(C)Cc2c(F)cccc23)n2ccc(=O)c(O)c2C1=O` (stereo not drawn) [Compound A51], the EC50 is less than 0.125 µM.

As for `CCCN1C(=O)c2c(O)c(=O)ccn2N(C23c4ccccc4CC2Cc2c(Cl)cccc23)C1C` (stereo not drawn) [Compound A132], the EC50 was in the range of 0.25 to 0.375 µM.

On to `O=C1c2c(O)c(=O)ccn2N(C23c4ccccc4CC2Cc2c3ccc(F)c2F)CN1CC1CCCCO1` (stereo not drawn) [Compound A131], for which the EC50 was 0.375 to 0.5 µM.

`CCN1CN(C23c4ccccc4CC2(C)Cc2cc(F)ccc23)n2ccc(=O)c(O)c2C1=O` (stereo not drawn) [Compound A116]: the EC50 is less than 0.125 µM.

`CCC12Cc3ccccc3C1(N1CN(C)C(=O)c3c(O)c(=O)ccn31)c1ccccc1C2` (stereo not drawn) [Compound A162] returned an EC50 of less than 0.125 µM.

Compound `O=C1c2c(O)c(=O)ccn2N(C23c4ccccc4CC2Cc2ccccc23)CN1CCOc1ccccc1` (stereo not drawn) [Compound A7, 1-(9a,10-Dihydro-9H-indeno[1,2-a]inden-4b-yl)-5-hydroxy-3-(2-phenoxy-ethyl)-2,3-dihydro-1H-pyrido[2,1-t][1,2,4]triazine-4,6-dione] came in with an EC50 greater than 0.5 µM.

Compound `CC(C)CN1C(=O)c2c(O)c(=O)ccn2N(C23c4ccccc4CC2Cc2c3ccc(F)c2F)C1C` (stereo not drawn) [Compound A127] registered an EC50 greater than 0.5 µM.

As for `CC1N(CC2CC2)C(=O)c2c(O)c(=O)ccn2N1C12c3ccccc3CC1Cc1c(F)cccc12` (stereo not drawn) [Compound A129], the EC50 was in the range of 0.25 to 0.375 µM.

Take `COCCN1CN(C23c4ccccc4CC2Cc2ccccc23)n2ccc(=O)c(O)c2C1=O` (stereo not drawn) [Compound A110]: the EC50 fell in the range of 0.125 to 0.25 µM.

Consider `O=C1c2c(O)c(=O)ccn2N(C23c4ccccc4CC2Cc2c(F)cccc23)CN1CCCF` (stereo not drawn) [Compound A79], for which the EC50 is less than 0.125 µM.

`CN1C(=O)c2c(O)c(=O)ccn2N(C23c4cccc(F)c4CC2Cc2c(F)cccc23)C1CO` (stereo not drawn) [Compound A59]: the 50% effective concentration (EC50) is less than 0.125 µM.

With `CC(CCN1CN(C23c4ccccc4CC2Cc2c3ccc(F)c2F)n2ccc(=O)c(O)c2C1=O)c1ccccc1` (stereo not drawn) [Compound A91], the EC50 is greater than 0.5 µM.

Turning to `CC(C)CN1C(=O)c2c(O)c(=O)ccn2N(C23c4ccccc4CC2Cc2c(F)cccc23)C1C` (stereo not drawn) [Compound A117], the EC50 was greater than 0.5 µM.

For `CCN1CN(C23c4ccccc4CC2Cc2ccc(F)cc23)n2ccc(=O)c(O)c2C1=O` (stereo not drawn) [Compound A52], the EC50 was less than 0.125 µM.

`CN1CN(C23c4cccc(F)c4CC2Cc2c(F)cccc23)n2ccc(=O)c(O)c2C1=O` (stereo not drawn) [Compound A12, 1-(1,8-Difluoro-9a,10-dihydro-9H-indeno[1,2-a]inden-4b-yl)-5-hydroxy-3-methyl-2,3-dihydro-1H-pyrido[2,1-f][1,2,4]triazine-4,6-dione] had an EC50 of less than 0.125 µM.

Take `O=C1c2c(O)c(=O)ccn2N(C23c4ccccc4CC2Cc2cc(F)c(F)cc23)CN1CCc1cccc(F)c1` (stereo not drawn) [Compound A28, 1-(2,3-difluoro-9a,10-dihydroindeno[1,2-a]inden-4b(9H)-yl)-3-(3-fluorophenethyl)-5-hydroxy-2,3-dihydro-1H-pyrido[2,1-f][1,2,4]triazine-4,6-dione]: the EC50 was 0.125 to 0.25 µM.

Regarding `O=C1c2c(O)c(=O)ccn2N(C23c4ccccc4CC2Cc2c(F)cccc23)CN1CC1CCCCO1` (stereo not drawn) [Compound A133], the EC50 fell in the range of 0.125 to 0.25 µM.

`CN1CN(C23c4ccccc4CC2(C)Cc2c3ccc(F)c2F)n2ccc(=O)c(O)c2C1=O` (stereo not drawn) [Compound A165] showed an EC50 of less than 0.125 µM.

In the case of `CC(C)CN1C(=O)c2c(O)c(=O)ccn2N(C23c4ccccc4CC2Cc2c(Cl)cccc23)C1C` (stereo not drawn) [Compound A118], the EC50 was greater than 0.5 µM.

Take `O=C1c2c(O)c(=O)ccn2N(C23c4ccccc4CC2Cc2c3ccc(F)c2F)CN1CC1CCOCC1` (stereo not drawn) [Compound A15, 1-(1,2-Difluoro-9a,10-dihydro-9H-indeno[1,2-a]inden-4b-yl)-5-hydroxy-3-(tetrahydro-pyran-4-ylmethyl)-2,3-dihydro-1H-pyrido[2,1-f][1,2,4]triazine-4,6-dione]: the EC50 is less than 0.125 µM.

For `CN1CN(C23c4ccccc4CC2Cc2c3ccc(Cl)c2F)n2ccc(=O)c(O)c2C1=O` (stereo not drawn) [Compound A160], the EC50 is less than 0.125 µM.

Take `CN1CN(C23c4ccc(F)cc4CC2Cc2cc(F)ccc23)n2ccc(=O)c(O)c2C1=O` (stereo not drawn) [Compound A3, 1-(2,7-Difluoro-9a,10-dihydro-9H-indeno[1,2-a]inden-4b-yl)-5-hydroxy-3-methyl-2,3-dihydro-1H-pyrido[2,1-f][1,2,4]triazine-4,6-dione]: the 50% effective concentration (EC50) fell in the range of 0.125 to 0.25 µM.

Consider `COCCN1CN(C23c4ccccc4CC2Cc2c(F)cccc23)n2ccc(=O)c(O)c2C1=O` (stereo not drawn) [Compound A69], for which the EC50 was less than 0.125 µM.

`CN1CN(C23c4cc(F)ccc4CC2Cc2ccc(F)cc23)n2ccc(=O)c(O)c2C1=O` (stereo not drawn) [Compound A20, 1-(3,6-difluoro-9a,10-dihydroindeno[1,2-a]inden-4b(9H)-yl)-5-hydroxy-3-methyl-2,3-dihydro-1H-pyrido[2,1-f][1,2,4]triazine-4,6-dione] yielded an EC50 of less than 0.125 µM.

In turn, `CN1CN(C23c4ccccc4CC2Cc2ccc(F)cc23)n2ccc(=O)c(O)c2C1=O` (stereo not drawn) [Compound A53] had an EC50 of less than 0.125 µM.

As to `O=C1c2c(O)c(=O)ccn2N(C23c4cccc(F)c4CC2Cc2c(F)cccc23)CN1CC1CC1` (stereo not drawn) [Compound A76], the EC50 was less than 0.125 µM.

`CCN1CN(C23c4ccccc4CC2Cc2c(Cl)cccc23)n2ccc(=O)c(O)c2C1=O` (stereo not drawn) [Compound A55] yielded an EC50 of less than 0.125 µM.

The compound `COCCN1C(=O)c2c(O)c(=O)ccn2N(C23c4ccccc4CC2Cc2c(F)cccc23)C1C` (stereo not drawn) [Compound A124] came in with an EC50 of 0.375 to 0.5 µM.

Take `O=C1c2c(O)c(=O)ccn2N(C23c4cccc(F)c4CC2Cc2c(F)cccc23)CN1CCCF` (stereo not drawn) [Compound A72]: the EC50 was less than 0.125 µM.

As for `O=C1c2c(O)c(=O)ccn2N(C23c4ccccc4CC2Cc2cc(F)c(F)cc23)CN1Cc1cccc(F)c1` (stereo not drawn) [Compound A24, 1-(2,3-difluoro-9a,10-dihydroindeno[1,2-a]inden-4b(9H)-yl)-3-(3-fluorobenzyl)-5-hydroxy-2,3-dihydro-1H-pyrido[2,1-f][1,2,4]triazine-4,6-dione], the EC50 is greater than 0.5 µM.

`CN1CN(C23c4cccc(F)c4CC2(C)Cc2c(F)cccc23)n2ccc(=O)c(O)c2C1=O` (stereo not drawn) [Compound A54] showed an EC50 of less than 0.125 µM.
